Assay results: article PMC4588578, “Targeting substrate-site in Jak2 kinase prevents emergence of genetic resistance” (Scientific Reports, 2015)
Like-named read-outs stand apart in the source and are kept apart here. Values belong to the compound of their own block, whether it stands above or below them.

What was measured:
[1] = tested on: BaF3 cells expressing JAK2-V617F/L983F; test: BaF3 cell proliferation dose-response; format: cell-based; conditions: variant L983F in JAK2-V617F
[2] = tested on: BaF3 cells expressing ruxolitinib-resistant JAK2-V617F variants; test: Dose-response analyses with ruxolitinib-resistant variants; format: cell-based; conditions: with or without IL-3
Procedure: Ba/F3 cells expressing mutant BCR-ABL proteins were plated in 96-well plates (0.5–1 × 10^4 cell per well) in RPMI medium containing 10% FCS and lacking IL-3. Kinase inhibitors were included in the media at varying concentrations. After 60 hours, the number of viable cells was assessed using WST-1 reagent (Roche Applied Science, USA), according to the manufacturer’s specifications. Assays were performed in quadruplicate.

JAK2 kinase domain L983F = molecular target: T1, JAK2 kinase domain L983F (Mus musculus, UniProt Q62120, L983F); test: Dose response of purified kinase domain; format: biochemical
T1 construct: made in house; host or cells: Spodoptera frugiperda Sf9 (baculovirus)
Procedure: (§1) Proteins were expressed in Spodoptera frugiperda, Sf9 cells. […] Each point mutants was confirmed by sequence analysis. […] All purification steps were carried out at 4 °C.

JAK2 kinase domain E930G = molecular target: T2, JAK2 kinase domain E930G (Mus musculus, UniProt Q62120, E930G); test: Dose response of purified kinase domain; format: biochemical
T2 construct: made in house; host or cells: Spodoptera frugiperda Sf9 (baculovirus)
Procedure: as §1

[3] = tested on: BaF3 cells expressing JAK2-V617F/Y931C/W1020C; test: BaF3 cell proliferation dose-response; format: cell-based; conditions: Mus musculus, BaF3, read-out: IC50, cell proliferation
[4] = tested on: BaF3 cells expressing JAK2-V617F/Y931C/S1039F; test: BaF3 cell proliferation dose-response; format: cell-based; conditions: Mus musculus, BaF3, read-out: IC50, cell proliferation
[5] = tested on: phospho-STAT5 in JAK3-transduced cells; test: Phospho-STAT5 inhibition in transduced BaF3 cells; format: cell-based; conditions: Mus musculus
[6] = tested on: BaF3 cells expressing JAK2-V617F/Y931C/S1025C; test: BaF3 cell proliferation dose-response; format: cell-based; conditions: Mus musculus, BaF3, read-out: IC50, cell proliferation
[7] = tested on: BaF3 cells expressing JAK2-V617F/Y931C/Y1045W; test: BaF3 cell proliferation dose-response; format: cell-based; conditions: Mus musculus, BaF3, read-out: IC50, cell proliferation
[8] = tested on: BaF3 cells expressing JAK2-V617F; test: Soft-agar colony assay; format: cell-based
[9] = tested on: BaF3 cells expressing JAK2-V617F; conditions: read-out: IC50, cell proliferation
[10] = tested on: phospho-STAT5 in BaF3 cells expressing JAK2-V617 variant L983F; test: Immunoblot analysis of phospho-STAT5; format: cell-based
[11] = tested on: BaF3 cells expressing JAK2-V617F/Y931C/F1019L; test: BaF3 cell proliferation dose-response; format: cell-based; conditions: Mus musculus, BaF3, read-out: IC50, cell proliferation
[12] = tested on: BaF3 cells expressing JAK2-V617F/Y931C/W1038C; test: BaF3 cell proliferation dose-response; format: cell-based; conditions: Mus musculus, BaF3, read-out: IC50, cell proliferation
[13] = tested on: BaF3 cells expressing JAK2-V617F/Y931C/F1061W; test: BaF3 cell proliferation dose-response; format: cell-based; conditions: Mus musculus, BaF3, read-out: IC50, cell proliferation
[14] = tested on: TEL-JAK3-expressing BaF3 cells; test: Soft-agar colony assay; format: cell-based
[15] = tested on: BaF3 cells transduced with randomly mutagenized JAK2-V617F; test: In vitro drug-resistance screen, random mutagenesis; format: cell-based; conditions: ruxolitinib at 1, 2 and 5 μM; fedratinib at 2-fold above IC50
Procedure: To generate random mutation library of Jak2-V617F, E. coli XL1-red cells were transformed with one μg of JAK2-V617F plasmid DNA. More specifically, 50–100 ng of DNA (more than 100 ng of DNA decreases transformation efficiency) was mixed with 100 μl of competent cells in a pre-chilled polypropylene tube and incubated on ice for 30 min, gently swirling every 5 min. For a good library, four to six tubes of competent cells are used. Cells from each tube were plated on four 10 cm LB-agar plates containing 100-μg/ml ampicillin. Plates were incubated at 37 °C for 18–24 hours. When colonies became visible (18–24 hrs), cells were pooled from each plates and plasmid DNA was isolated using the Qiagen’s midiprep kit. At this stage, the heterogeneity of mutations in the library can be roughly assessed by restriction digestion with a frequent cutter such as Sau3A1 or Taq1 or sequencing.
To select resistant clones of JAK2-V617F, high titer retroviruses were produced as describe. One hundred million native BAF3 cells were transduced with 100 ml of virus supernatants having a viral titer of 0.5–1 × 10^6. […] We observed that the overexpression of EPOR or MPL tend to loose dependence on Jak2 resulting to emergence of false-positives[58]. More specifically, 100 × 10^6 cells were mixed with 100 ml of virus supernatant and 100 ml of RPMI, containing 10% serum and 24 μg/ml of polyberene. […]

[16] = tested on: BaF3 cells expressing JAK2-V617F/Y931C/L1026F; test: BaF3 cell proliferation dose-response; format: cell-based; conditions: Mus musculus, BaF3, read-out: IC50, cell proliferation
[17] = tested on: BaF3 cells expressing JAK2-V617F/Y931C/Y1045*; test: BaF3 cell proliferation dose-response; format: cell-based; conditions: Mus musculus, BaF3, read-out: IC50, cell proliferation
[18] = tested on: BaF3 cells expressing JAK2-V617F/Y931C/I1018F; test: BaF3 cell proliferation dose-response; format: cell-based; conditions: Mus musculus, BaF3, read-out: IC50, cell proliferation
[19] = tested on: phospho-STAT5 in JAK1-transduced cells; test: Phospho-STAT5 inhibition in transduced BaF3 cells; format: cell-based; conditions: Mus musculus
Procedure: (§2) Assays were performed in quadruplicate.

[20] = tested on: TEL-JAK1-expressing BaF3 cells; test: Soft-agar colony assay; format: cell-based
[21] = tested on: BaF3 cells expressing JAK2-V617F; test: cells; conditions: Mus musculus, BaF3, read-out: IC50, cell proliferation, BaF3 JAK2-V617F
[22] = tested on: BaF3 cells expressing TEL-JAK2; test: BaF3 cell proliferation dose-response; format: cell-based; conditions: receptor-free fully activated JAK2 (TEL-JAK2); data not shown
Procedure: as §2

[23] = tested on: BaF3 cells expressing JAK2-V617F/Y931C/V1075F; test: BaF3 cell proliferation dose-response; format: cell-based; conditions: Mus musculus, BaF3, read-out: IC50, cell proliferation
[24] = tested on: BaF3 cells expressing luciferase and JAK2-V617F; test: In vivo efficacy, leukemic burden by bioluminescence; conditions: 100 mg/kg twice daily, IP, two weeks
[25] = tested on: BaF3 cells expressing luciferase and JAK2-V617F/L983F; test: as above; conditions: 100 mg/kg twice daily, IP, two weeks
[26] = set-up: method as in PMID 21257798; conditions: at 100 mg/kg; cited from earlier work

T1 sequence (Q62120 849-1124 L983F limits assumed): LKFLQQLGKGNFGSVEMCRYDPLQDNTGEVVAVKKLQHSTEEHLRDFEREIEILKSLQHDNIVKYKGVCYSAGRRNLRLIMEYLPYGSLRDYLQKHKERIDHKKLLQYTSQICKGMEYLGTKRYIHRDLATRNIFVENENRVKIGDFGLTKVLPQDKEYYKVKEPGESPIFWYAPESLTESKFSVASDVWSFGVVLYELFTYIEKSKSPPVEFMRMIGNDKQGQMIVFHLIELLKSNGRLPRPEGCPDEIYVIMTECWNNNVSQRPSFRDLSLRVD
T2 sequence (Q62120 849-1124 E930G limits assumed): as the sequence (Q62120 849-1124 L983F limits assumed) above, with E82G, F135L counted along it

Structure (SMILES): Cc1cc(Nc2nc(N[C@@H](C)c3ncc(F)cn3)ncc2Cl)n[nH]1 [AZD1480]
- resistance or sensitivity of variant L983F [1]: resistance
- resistance of ruxolitinib-resistant variants [2]: cross-resistance

- resistance or sensitivity of purified kinase domain (JAK2 kinase domain L983F): sensitive
- resistance or sensitivity of purified kinase domain (JAK2 kinase domain E930G): sensitive
Structure (SMILES): N#CCNC(=O)c1ccc(-c2ccnc(Nc3ccc(N4CCOCC4)cc3)n2)cc1 [CYT-387]
- resistance or sensitivity of variant L983F [1]: full sensitivity
- resistance of ruxolitinib-resistant variants [2]: cross-resistance

Structure (SMILES): Cc1cnc(Nc2ccc(OCCN3CCCC3)cc2)nc1Nc1cccc(S(=O)(=O)NC(C)(C)C)c1 [fedratinib]
- IC50 [3]: 1.01 µM
- IC50 [4]: 1.65 µM
- IC50 [5]: > 5 µM
- IC50 [6]: 2.31 µM
- IC50 [7]: 2.11 µM
- concentration above which cells failed to grow [8]: 3 µM
- IC50 [9]: ~0.9 µM
- phospho-STAT5 inhibition (immunoblot) [10]: dose-dependent inhibition
- IC50 [11]: 1.03 µM
- IC50 [12]: 1.58 µM
- IC50 [13]: 1.98 µM
- concentration up to which colony growth is supported [14]: 4 µM
- emergence of resistant clones [15]: did not result in any resistant clones
- IC50 [16]: 1.69 µM
- IC50 [17]: 1.68 µM
- IC50 [18]: 1.49 µM
- IC50 [19]: > 10 µM
- concentration up to which colony growth is supported [20]: 6 µM
- IC50 [21]: 1.07 µM
- resistance of ruxolitinib-resistant variants [2]: complete lack of resistance
- increase in hypersensitivity of TEL-JAK2 in comparison to JAK2-V617F [22]: ~ 3 fold
- IC50 [23]: 2.25 µM

Structure (SMILES): C[C@]12O[C@H](C[C@]1(O)CO)n1c3ccccc3c3c4c(c5c6ccccc6n2c5c31)CNC4=O [lestaurtinib]
- resistance or sensitivity of variant L983F [1]: resistance
- resistance of ruxolitinib-resistant variants [2]: cross-resistance

Structure (SMILES): N#CC[C@H](C1CCCC1)n1cc(-c2ncnc3[nH]ccc23)cn1 [ruxolitinib]
- effect on transplanted cells (leukemic burden) [24]: eradicated
- effect on transplanted cells (leukemic burden) [25]: ineffective
- Cmax [26]: 4.4 µM
